Laboratory results as given in US12698279B2, “Polymorphs of a hydrochloride salt of PN6047” (Pharmnovo AB, priority 2020, dated 2026).
“And” between values parts separate entries of the source, which are not always exact repeats. Equal entries are not always repeated. “Also recorded” adds a separate entry of the source. Where two headings read alike, the source gives them in different places.

Legend:
[1] = Dynamic vapour sorption (DVS) hygroscopicity; type: physicochemical; settings: for hygroscopicity (classification as per the European Pharmacopoeia) / water uptake: 25° C./80% RH; for form by HT-XRPD after the DVS cycle: sorption-desorption-sorption 40-95-0-45% RH
Method: Analyses were performed on a DVS-1 system from Surface Measurement Systems (London, UK). Weight equilibration per step was set at dm/dt<0.002 for a minimum of 1 hour or a maximum of 6 hours. The sample was subjected to a sorption-desorption-sorption cycle running from 40 to 95 to 0 to 45% RH, at a constant temperature of 25° C. One cycle consisted of 20 steps, those between 0 and 90% RH were taken in 10% RH each. Afterwards the sample was measured by HT-XRPD.
Forms HCl2 and HCl3 were subjected to DVS measurements to determine the hygroscopicity of these two forms. The material initially took up water slowly with increasing relative humidity (RH) up to about 90% RH. The change in mass was approximately 3.3%, corresponding to about 1 molecule of water per molecule of PN6047. […] The material was then gradually dried from 95 to 0% RH in steps of 10% RH. The corresponding mass change upon drying was different than the initial mass increase upon hydration. Finally, from 0 to 40% RH, the water uptake proceeded in the same way as in the preceding dehydration step. […] It is believed that the uptake of the 2 additional molecules of water may have led to a change from form HCl2 to form HCl3.
The material gradually took up water with increasing relative humidity (RH) up to 95% RH. […] The material was then gradually dried from 95 to 0% RH in steps of 10% RH. The corresponding mass change upon drying was approximately the same as the initial mass increase upon hydration. Finally, from 0 to 40% RH, the water uptake proceeded in the same way as the preceding dehydration step.

[2] = Incubation at high humidity or under vacuum, form by XRPD; type: physicochemical; settings: 2 days
Method: To further understand the hygroscopic nature of form HCl2, a sample of the material was incubated at 85% RH at room temperature for 2 days.
A sample of Form HCl3 was further incubated at 50° C./1 mbar for 2 days to determine whether conversion to Form HCl2 would take place.

[3] = Solution stability study in saline (LCMS); type: physicochemical
Method: Experiments were performed in saline (0.9% NaCl in water). Two stock solutions of Form HCl2 in saline were prepared, one with a concentration of 10 mg/mL and one with a concentration of 100 mg/mL. The 10 mg/mL stock solution was prepared by dissolving 56 mg of material in 5 mL of saline. The 100 mg/mL stock solution was prepared by dissolving 196.2 mg of material in 1.75 mL saline. For each experiment involving 10 mg/mL, 0.5 mL of stock solution was transferred to an HPLC vial whereas for each experiment involving 100 mg/mL, 0.15 mL of stock solution was transferred to an HPLC vial. The HPLC vials were closed with a screw cap and placed in a Crystal16™ apparatus and incubated at different temperatures.
After the incubation time, the samples were diluted with acetonitrile/water 1:1 (v/v) and measured by LCMS to determine the API peak area.

[4] = Solid-state stability study (XRPD, TGA, LCMS); type: physicochemical; settings: for LCMS API / TGA mass loss / XRPD: solid state
Method: The solid-state stability of Form HCl2 was determined by incubating samples of approximately 18 mg at different conditions (temperature and relative humidity). After 1 week and 4 weeks, the samples were analyzed by XRPD to determine the polymorphic form, by TGA to determine the mass loss upon heating and by LCMS to determine the API purity. The experimental details and results are described in Table 6.

[5] = Bioavailability study in rats; type: in vivo; settings: male, Wistar, blood, rat, single dose, vs 1 mg/kg intravenous, read-out: Bioavailability (Fabs)
Method: Male Wistar rats were used. Six groups of four animals each were used. Two groups were administered a single intravenous dose of 1 mg/kg of the free base or the HCl2 salt, one group was administered a single oral dose of 3 mg/kg of the free base, and three groups were administered a single oral dose of 3, 10 or 50 mg/kg of the HCl2 salt. Blood samples were collected after 0.25, 0.5, 1, 2, 4, 6, 8 and 24 hours following intravenous administration, and after 0.083, 0.25, 0.5, 1, 2, 4, 6, 8 and 24 hours following oral administration. The samples were analyzed using an LC/MS/MS system. The bioavailability (Fabs) is shown in Table 7 and was calculated as follows: […]

[6] = Solubility in water at pH 7; type: physicochemical
Method: For instance, whereas the free base only sparingly dissolves in water at pH 7 (<1 mg/mL), Forms HCl2 and HCl3 are highly soluble in water at the same pH (>100 mg/mL). The higher solubility of the HCl salt allows continued investigation of the compound at higher concentrations, which is advantageous e.g. in toxicology studies. […] It is expected that the increased bioavailability (and thus the increased exposure) of the HCl salt may lead to an improved efficacy of PN6047 in the treatment of pain and other indications as mentioned herein. Possibly, the increased bioavailability may allow the HCl salt to be administered in substantially lower doses than the free base. The unexpected increase in bioavailability of the HCl salt may also enable the use of sustained release formulations of the compound.

Q: Which “relative humidity at which the form absorbs water and transforms into Form HCl3” value [1] does the source give for `CN(C)C(=O)c1ccc(C(=C2CCN(Cc3cncs3)CC2)c2cccc(C(N)=O)c2)cc1` [Form HCl2, 4-[(3-carbamoylphenyl)[1-(1,3-thiazol-5-ylmethyl)piperidin-4-ylidene]methyl]-N,N-dimethylbenzamide] here?
A: > 85 % RH

Q: And the “relative humidity up to which the form is believed stable” value [1]?
A: up to 85 % RH

Q: And the mass increase ([1]; DVS, 25° C., from 90 to 95% RH)?
A: 10.0%

Q: What about the change in mass ([1]; DVS, 25° C., increasing RH up to about 90% RH) of the same molecule?
A: approximately 3.3%

Q: And the “hygroscopicity (classification as per the European Pharmacopoeia)” value ([1]; DVS)?
A: moderate hygroscopicity

Q: And the water uptake ([1]; DVS)?
A: approximately 2.2%

Q: And the “hygroscopicity (classification as per the European Pharmacopoeia)” value ([1]; DVS, listed as form HCl2)?
A: moderately hygroscopic

Q: What about the water uptake ([1]; DVS, listed as form HCl2) of the same molecule?
A: approximately 2.2%

Q: And the “form by HT-XRPD after the DVS cycle” value ([1]; 25° C., listed as form HCl2)?
A: conversion had taken place from form HCl2 to form HCl3

Q: And the “form by XRPD after incubation” value ([2]; 85% RH, room temperature)?
A: conversion into form HCl3 had taken place

Q: And the “time chemically stable in saline” value [3]?
A: up to 1 week

Q: What about the “LCMS API” value ([3]; 10 mg/mL, 5° C., 3 d) of the same molecule?
A: 99.9 area %

Q: And the “LCMS API” value ([3]; 10 mg/mL, 5° C., 4 d)?
A: 99.9 area %

Q: What about the “LCMS API” value ([3]; 10 mg/mL, 5° C., 7 d) of the same molecule?
A: 99.9 area %

Q: And the “LCMS API” value ([3]; 10 mg/mL, 25° C., 0 d)?
A: 99.9 area %

Q: And the “LCMS API” value ([3]; 10 mg/mL, 25° C., 3 d)?
A: 99.9 area %

Q: What about the “LCMS API” value ([3]; 10 mg/mL, 25° C., 4 d) of the same molecule?
A: 99.9 area %

Q: What about the “LCMS API” value ([3]; 10 mg/mL, 25° C., 7 d) of the same molecule?
A: 99.9 area %

Q: And the “LCMS API” value ([3]; 10 mg/mL, 40° C., 3 d)?
A: 99.9 area %

Q: What about the “LCMS API” value ([3]; 10 mg/mL, 40° C., 4 d) of the same molecule?
A: 99.9 area %

Q: And the “LCMS API” value ([3]; 10 mg/mL, 40° C., 7 d)?
A: 99.9 area %

Q: And the “LCMS API” value ([3]; 100 mg/mL, 5° C., 3 d)?
A: 99.9 area %

Q: And the “LCMS API” value ([3]; 100 mg/mL, 5° C., 4 d)?
A: 99.9 area %

Q: And the “LCMS API” value ([3]; 100 mg/mL, 5° C., 7 d)?
A: 99.9 area %

Q: And the “LCMS API” value ([3]; 100 mg/mL, 25° C., 0 d)?
A: 99.9 area %

Q: What about the “LCMS API” value ([3]; 100 mg/mL, 25° C., 3 d) of the same molecule?
A: 99.9 area %

Q: What about the “LCMS API” value ([3]; 100 mg/mL, 25° C., 4 d) of the same molecule?
A: 99.9 area %

Q: And the “LCMS API” value ([3]; 100 mg/mL, 25° C., 7 d)?
A: 99.9 area %

Q: What about the “LCMS API” value ([3]; 100 mg/mL, 40° C., 3 d) of the same molecule?
A: 99.9 area %

Q: What about the “LCMS API” value ([3]; 100 mg/mL, 40° C., 4 d) of the same molecule?
A: 99.9 area %

Q: And the “LCMS API” value ([3]; 100 mg/mL, 40° C., 7 d)?
A: 100.0 area %

Q: And the time physically stable ([4]; 25° C./60% RH, 40° C./75% RH and 60° C./38% RH)?
A: ≥ 4 weeks

Q: What about the “LCMS API” value ([4]; 1 week, 25° C./60% RH) of the same molecule?
A: 100 area %

Q: And the TGA mass loss ([4]; 1 week, 25° C./60% RH)?
A: 1.8 wt %

Q: And the XRPD ([4]; 1 week, 25° C./60% RH)?
A: HCl2

Q: And the “LCMS API” value ([4]; 1 week, 40° C./75% RH)?
A: 100 area %

Q: And the TGA mass loss ([4]; 1 week, 40° C./75% RH)?
A: 1.9 wt %

Q: What about the XRPD ([4]; 1 week, 40° C./75% RH) of the same molecule?
A: HCl2

Q: And the “LCMS API” value ([4]; 1 week, 60° C./38% RH)?
A: 100 area %

Q: What about the TGA mass loss ([4]; 1 week, 60° C./38% RH) of the same molecule?
A: 1.9 wt %

Q: What about the XRPD ([4]; 1 week, 60° C./38% RH) of the same molecule?
A: HCl2

Q: And the “LCMS API” value ([4]; 4 weeks, 25° C./60% RH)?
A: 100 area %

Q: And the TGA mass loss ([4]; 4 weeks, 25° C./60% RH)?
A: 1.5 wt %

Q: What about the XRPD ([4]; 4 weeks, 25° C./60% RH) of the same molecule?
A: HCl2

Q: What about the “LCMS API” value ([4]; 4 weeks, 40° C./75% RH) of the same molecule?
A: 100 area %

Q: And the TGA mass loss ([4]; 4 weeks, 40° C./75% RH)?
A: 1.6 wt %

Q: And the XRPD ([4]; 4 weeks, 40° C./75% RH)?
A: HCl2

Q: What about the “LCMS API” value ([4]; 4 weeks, 60° C./38% RH) of the same molecule?
A: 100 area %

Q: And the TGA mass loss ([4]; 4 weeks, 60° C./38% RH)?
A: 1.9 wt %

Q: And the XRPD ([4]; 4 weeks, 60° C./38% RH)?
A: HCl2

Q: What about the “LCMS API” value ([4]; incubation time 0) of the same molecule?
A: 100 area %

Q: And the TGA mass loss ([4]; incubation time 0)?
A: 1.0 wt %

Q: What about the XRPD ([4]; incubation time 0) of the same molecule?
A: HCl2

Q: What about the bioavailability ([5]; oral 3 mg/kg) of the same molecule?
A: 24%

Q: And the bioavailability ([5]; oral 10 mg/kg)?
A: 35.5%

Q: And the bioavailability ([5]; oral 50 mg/kg)?
A: 35% and 34.6%

Q: Which “hygroscopicity (classification as per the European Pharmacopoeia)” value ([1]; DVS, listed as form HCl3) does the source give for `CN(C)C(=O)c1ccc(C(=C2CCN(Cc3cncs3)CC2)c2cccc(C(N)=O)c2)cc1` [Form HCl3, 4-[(3-carbamoylphenyl)[1-(1,3-thiazol-5-ylmethyl)piperidin-4-ylidene]methyl]-N,N-dimethylbenzamide] here?
A: moderately hygroscopic

Q: And the water uptake ([1]; DVS, listed as form HCl3)?
A: approximately 8.0%

Q: What about the “form by HT-XRPD after the DVS cycle” value ([1]; 25° C., listed as form HCl3) of the same molecule?
A: form HCl3 was still present

Q: And the form after drying ([2]; 50° C./1 mbar)?
A: poorly crystalline phase of Form HCl3; also recorded: less crystalline phase of Form HCl3

Q: Which solubility in water [6] does the source give for `CN(C)C(=O)c1ccc(C(=C2CCN(Cc3cncs3)CC2)c2cccc(C(N)=O)c2)cc1` [Free base, 4-[(3-carbamoylphenyl)[1-(1,3-thiazol-5-ylmethyl)piperidin-4-ylidene]methyl]-N,N-dimethylbenzamide] here?
A: < 1000 µg/mL

Q: What about the bioavailability ([5]; oral 3 mg/kg) of the same molecule?
A: 8%
